One assay relates to Rhipicephalus sanguineus. The experiment in a line: Rhipicephalus sanguineus - in vitro contact tests with adult brown dog ticks. The format is in vivo. The settings on record: application rate 5 μg/cm^2, after 48 h (dead or moribund). A digest of the protocol:
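Test compound was dissolved in acetone p.a. (9 mg in 1 ml, then diluted), and 250 μl were spread evenly over the inner surface of 25 ml test tubes on an orbital shaker at 30 rpm for 2 h. Once the solvent evaporated, 5-10 adult Rhipicephalus sanguineus ticks were sealed in, kept dark at room temperature, and after 48 h placed on a 45-50° C. hotplate to score dead or moribund ticks.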

The next assay relates to Ctenocephalides felis. The assay is described as follows: Ctenocephalides felis - oral test. The format is in vivo. The settings on record: Ctenocephalides felis, po, 48 h; application rate 100 ppm in citrated cattle blood; adult fleas; kill after 2 days; read-out: efficacy. A digest of the protocol:
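Compound dissolved in DMSO (10 mg in 0.5 ml stock) and diluted with citrated cattle blood to test concentration. About 20 unfed adult fleas fed on the treated blood through a parafilm membrane. Kill (%) scored after 2 days; 100% = all fleas dead.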

`Cc1cc(C(F)(C(F)(F)F)C(F)(F)F)cc(C)c1-n1cc(-c2ccc(Cl)c(C(=O)NC3CC3)c2)cn1` [I-T3-1, 2-chloro-N-cyclopropyl-5-[1-[2,6-dimethyl-4-[1,2,2,2-tetrafluoro-1-(trifluoromethyl)ethyl]phenyl]pyrazol-4-yl]benzamide] yielded an efficacy with Rhipicephalus sanguineus of 100%. Besides, the pest or weed control at 100 ppm with Ctenocephalides felis was 100%.

The record behind these values is patent publication US9758485B2, “Compounds for controlling arthropods” (priority 2013, dated 2017).
